In patent publication US8389541B2, “Inhibitors of protein tyrosine kinase activity” (MethylGene Inc., priority 2007, dated 2013):

Each compound was assayed on MKN45 tumor (assay: In vivo solid tumor disease model, MKN45). Settings: Mus musculus, MKN-45, po, 312 h; MKN45, 20 mg/kg orally daily, 13 days; read-out: Tumor Growth Inhibition (%).
Design: species or system mice

Row | SMILES | inhibition in vivo at 20 mg/kg [%]
1 | COCCNCc1ccc(-c2cc3nccc(Oc4ccc(NC(=O)CC(=O)N(C)c5ccc(F)cc5)cc4F)c3s2)nc1 [drawing 375] | 25 to 50
2 | COCCNCc1cnc(-c2cc3nccc(Oc4ccc(NC(=S)NC(=O)Cc5ccccc5)cc4F)c3s2)n1C [drawing 371] | 50 to 75

The compounds below were run on U87MG tumor (assay: In vivo solid tumor disease model, U87MG). Settings: Mus musculus, U-87 MG, po, 240 h, 20 mg/kg orally daily, 10 days, read-out: Tumor Growth Inhibition (%).
Design: species or system mice
Text: (§1) This test measures the capacity of compounds to inhibit solid tumor growth.
(§2) Tumor xenografts are established in the flank of female athymic CD1 mice (Charles River Inc.), by subcutaneous injection of 1×106 U87, A431 or SKLMS cells/mouse. Once established, tumors are then serially passaged s.c. in nude mice hosts. Tumor fragments from these host animals are used in subsequent compound evaluation experiments. For compound evaluation experiments female nude mice weighing approximately 20 g are implanted s.c. by surgical implantation with tumor fragments of ˜30 mg from donor tumors. When the tumors are approximately 100 mm3 in size (˜7-10 days following implantation), the animals are randomized and separated into treatment and control groups. Each group contains 6-8 tumor-bearing mice, each of which is ear-tagged and followed individually throughout the experiment.
(§3) Mice are weighed and tumor measurements are taken by calipers three times weekly, starting on Day 1. These tumor measurements are converted to tumor volume by the well-known formula (L+W/4)3 4/3π. The experiment is terminated when the control tumors reach a size of approximately 1500 mm^3. In this model, the change in mean tumor volume for a compound treated group/the change in mean tumor volume of the control group (non-treated or vehicle treated)×100 (ΔT/ΔC) is subtracted from 100 to give the percent tumor growth inhibition (% TGI) for each test compound. In addition to tumor volumes, body weight of animals is monitored twice weekly for up to 3 weeks.

Row | SMILES | inhibition in vivo at 20 mg/kg [%]
3 | CS(=O)(=O)CCNCc1ccc(-c2cc3nccc(Oc4ccc(NC(=O)C5(C(=O)Nc6ccccc6)CC5)cc4F)c3s2)cc1 [drawing 370] | 50 to 75
4 | COCCNCCn1cc(-c2cc3nccc(Oc4ccc(NC(=S)NC(=O)Cc5ccccc5)cc4F)c3s2)cn1 [drawing 367] | 25 to 50

Same assay, conditions: Mus musculus, U-87 MG, po, 288 h, 20 mg/kg orally daily, 12 days, read-out: Tumor Growth Inhibition (%)

Row | SMILES | inhibition in vivo at 20 mg/kg [%]
5 | COCCNCCn1cnc(-c2cc3nccc(Oc4ccc(NC(=S)NC(=O)Cc5ccc(F)cc5)cc4F)c3s2)c1 [drawing 366] | < 25

Same assay, conditions: Mus musculus, U-87 MG, po, 312 h, 20 mg/kg orally daily, 13 days, read-out: Tumor Growth Inhibition (%)

Row | SMILES | inhibition in vivo at 20 mg/kg [%]
6 | COCCNCc1cccc(-c2cc3nccc(Oc4ccc(NC(=O)C5(C(=O)Nc6ccc(F)cc6)CC5)cc4F)c3s2)n1 | ≥ 75

The compounds below were run on SKLMS40 tumor (assay: In vivo solid tumor disease model, SKLMS40). Settings: Mus musculus, po, 312 h; SKLMS40, 20 mg/kg orally daily, 13 days; read-out: Tumor Growth Inhibition (%).
Design: species or system mice
Text: as §1, §2, §3

Row | SMILES | inhibition in vivo at 20 mg/kg [%]
7 | COCCNCc1cnc(-c2cc3nccc(Oc4ccc(NC(=S)NC(=O)Cc5ccccc5)cc4F)c3s2)n1C [drawing 371] | < 25
8 | COCCNCc1ccc(-c2cc3nccc(Oc4ccc(NC(=O)C5(C(=O)Nc6ccccc6)CC5)cc4F)c3s2)o1 [drawing 368] | 50 to 75

Same assay, conditions: Mus musculus, po, 360 h; SKLMS40, 20 mg/kg orally daily, 15 days; read-out: Tumor Growth Inhibition (%)

Row | SMILES | inhibition in vivo at 20 mg/kg [%]
9 | COCCNCc1ccc(-c2cc3nccc(Oc4ccc(NC(=S)NC(=O)Cc5ccc(F)cc5)c(OC)c4)c3s2)nc1 | 25 to 50
10 | COCCNCc1ccc(-c2cc3nccc(Oc4ccc(NC(=O)C5(C(=O)Nc6ccc(F)cc6)CC5)c(OC)c4)c3s2)nc1 | 25 to 50
11 | COCCNCc1ccc(-c2cc3nccc(Oc4ccc(NC(=O)Nc5cc(C)on5)c(OC)c4)c3s2)nc1 | ≥ 75

The compounds below were run on A549 tumor (assay: In vivo solid tumor disease model, A549). Settings: A549, 20 mg/kg orally daily, 12 days.
Design: species or system mice

Row | SMILES | Tumor Growth Inhibition (%)
12 | COCCNCc1ccc(-c2cc3nccc(Oc4ccc(NC(=O)CC(=O)N(C)c5ccc(F)cc5)cc4F)c3s2)nc1 [drawing 375] | A (tumor growth inhibition of less than 25%)
13 | COCCNCc1cnc(-c2cc3nccc(Oc4ccc(NC(=S)NC(=O)Cc5ccccc5)cc4F)c3s2)n1C [drawing 371] | B (tumor growth inhibition of ≧25% but <50%)

What follows are compounds tested on CNV progression (assay: In vivo choroidal neovascularization (CNV) model, laser-induced). Settings: Brown-Norway rats, intravitreal injection 30 and/or 100 nmol/eye on Day 1 and/or Day 3 and/or Day 7, CNV area on Day 10.
Text: This test measures the capacity of compounds to inhibit CNV progression. CNV is the main cause of severe vision loss in patients suffering from age-related macular degeneration (AMD).
Male Brown-Norway rats (Japan Clea Co., Ltd.) were used in these studies.
Rats were anesthetized by intraperitoneal injection of pentobarbital, and the right pupil was dilated with 0.5% tropicamide and 0.5% phenylephrine hydrochloride. The right eye received 6 laser burns between retinal vessels using a slit lamp delivery system of Green laser Photocoagulator (Nidex Inc., Japan), and microscope slide glass with Heaton™ (AMO Inc) used as a contact lens. The laser power was 100 or 200 mW for 0.1 second and spot diameter was 100 μm. At the time of laser burn, bubble production was observed, which is an indication of rupture of Bruch's membrane which is important for CNV generation.
Rats were divided into the groups based on their body weight using SAS software (SAS institute Japan, R8.1) after laser irradiation (Day 0). After animals were anesthetized, and the right pupil dilated (as above mentioned), the right eye of the animal received the compound or vehicle by intravitreal injection (5 or 10 μL/eye) at doses of 30 and/or 100 nmol/eyeon Day 1 and/or Day 3 and/or Day 7. The compounds were dissolved or suspended in CBS, PBS, or other adequate vehicles before injection.
On Day 10, the animals were anesthetized with ether, and high molecular weight fluorescein isothiocyanate (FITC)-dextran (SIGMA, 2×10^6 MW) was injected via a tail vein (20 mg/rat). About 30 min after FITC-dextran injection, animals were euthanized by ether or carbon dioxide, and the eyes were removed and fixed with 10% formaline neutral buffer solution. After over 1 hour of fixation, RPE-choroid-sclera flat mounts were obtained by removing cornea, lens and retina from the eyeballs. The flat mounts were mounted in 50% glycerol on a microscope slide, and the portion burned by laser was photographed using a fluorescence microscope (Nikon Corporation, excitation filter:465-495 nm, absorption filter:515-555 nm). The CNV area was obtained by measurement of hyper-fluorescence area observed on the photograph using Scion image.
The average CNV area of 6 burns was used as an individual value of CNV area, and the average CNV area of compound treated group was compared with that of the vehicle-treated group. […]

Row | SMILES | % Inhibition of CNV Progression
14 | COCCNCc1ccc(-c2cc3nccc(Oc4ccc(NC(=O)CC(=O)N(C)c5ccccc5)cc4F)c3s2)nc1 [116(223), N1-(3-fluoro-4-(2-(5-((2-methoxyethylamino)methyl)pyridin-2-yl)thieno[3,2-b]pyridin-7-yloxy)phenyl)-N3-methyl-N3-phenylmalonamide] | B (≧10% to <30% inhibition)
15 | COCCNCc1ccc(-c2cc3nccc(Oc4ccc(NC(=O)Nc5cccc(C)c5)cc4F)c3s2)nc1 [161(268), 1-(3-fluoro-4-(2-(5-((2-methoxyethylamino)methyl)pyridin-2-yl)thieno[3,2-b]pyridin-7-yloxy)phenyl)-3-m-tolylurea] | B (≧10% to <30% inhibition)
16 | COCCNCc1ccc(-c2cc3nccc(Oc4ccc(NC(=O)Nc5cc(C(F)(F)F)ccc5F)cc4F)c3s2)nc1 [146(253), 1-(3-fluoro-4-(2-(5-((2-methoxyethylamino)methyl)pyridin-2-yl)thieno[3,2-b]pyridin-7-yloxy)phenyl)-3-(2-fluoro-5-(trifluoromethyl)phenyl)urea] | A (greater than or equal to 30% inhibition)
17 | CCOCCNCc1ccc(-c2cc3nccc(Oc4ccc(NC(=O)Nc5cc(C)ccc5F)cc4F)c3s2)nc1 [173(280), 1-(4-(2-(5-((2-ethoxyethylamino)methyl)pyridin-2-yl)thieno[3,2-b]pyridin-7-yloxy)-3-fluorophenyl)-3-(2-fluoro-5-methylphenyl)urea] | A (greater than or equal to 30% inhibition)
18 | COCCNCc1ccc(-c2cc3nccc(Oc4ccc(NC(=O)NC5CC5)cc4F)c3s2)nc1 [170(277), 1-Cyclopropyl-3-(3-fluoro-4-(2-(5-((2-methoxyethylamino)methyl)pyridin-2-yl)thieno[3,2-b]pyridin-7-yloxy)phenyl)urea] | A (greater than or equal to 30% inhibition)
19 | COCCNCc1cnc(-c2cc3nccc(Oc4ccc(NC(=O)C5(C(=O)Nc6ccc(F)cc6)CC5)cc4F)c3s2)n1C [163(270), N-(3-fluoro-4-(2-(5-((2-methoxyethylamino)methyl)-1-methyl-1H-imidazol-2-yl)thieno[3,2-b]pyridin-7-yloxy)phenyl)-N-(4-fluorophenyl)cyclopropane-1,1-dicarboxamide] | A (greater than or equal to 30% inhibition)
20 | C=CCNC(=O)Nc1ccc(Oc2ccnc3cc(-c4ccc(CNCCOC)cn4)sc23)c(F)c1 [167(274), 1-allyl-3-(3-fluoro-4-(2-(5-((2-methoxyethylamino)methyl)pyridin-2-yl)thieno[3,2-b]pyridin-7-yloxy)phenyl)urea] | A (greater than or equal to 30% inhibition)
21 | CN(C(=O)CC(=O)Nc1ccc(Oc2ccnc3cc(-c4ccc(CNCCS(C)(=O)=O)cc4)sc23)c(F)c1)c1ccccc1 [80(187), N1-(3-fluoro-4-(2-(4-((2-(methylsulfonyl)ethylamino)methyl)phenyl)thieno[3,2-b]pyridin-7-yloxy)phenyl)-N3-methyl-N3-phenylmalonamide] | A (greater than or equal to 30% inhibition)
22 | COCCNCc1cnc(-c2cc3nccc(Oc4ccc(NC(=O)CC(=O)N(C)c5ccccc5)cc4F)c3s2)n1C [14(50), N^1-(3-Fluoro-4-(2-(5-((2-methoxyethylamino)methyl)-1-methyl-1H-imidazol-2-yl)thieno[3,2-b]pyridin-7-yloxy)phenyl)-N3-methyl-N^3-phenylmalonamide] | B (≧10% to <30% inhibition)
23 | COCCNCc1cccc(-c2cc3nccc(Oc4ccc(NC(=O)Nc5cc(C)on5)cc4F)c3s2)n1 [162(269), 1-(3-fluoro-4-(2-(6-((2-methoxyethylamino)methyl)pyridin-2-yl)thieno[3,2-b]pyridin-7-yloxy)phenyl)-3-(5-methylisoxazol-3-yl)urea] | A (greater than or equal to 30% inhibition)
24 | NCCCOCCOCCOCCCNCc1ccc(-c2cc3nccc(Oc4ccc(NC(=O)Nc5cc(C(F)(F)F)ccc5F)cc4F)c3s2)nc1 [177(284), 1-(4-(2-(5-(15-Amino-6,9,12-trioxa-2-azapentadecyl)pyridin-2-yl)thieno[3,2-b]pyridin-7-yloxy)-3-fluorophenyl)-3-(2-fluoro-5-(trifluoromethyl)phenyl)urea] | A (greater than or equal to 30% inhibition)
25 | COCCNCc1ccc(-c2cc3nccc(Oc4ccc(NC(=O)Nc5cc(C(C)(C)C)on5)cc4F)c3s2)nc1 [145(252), 1-(5-tert-butylisoxazol-3-yl)-3-(3-fluoro-4-(2-(5-((2-methoxyethylamino)methyl)pyridin-2-yl)thieno[3,2-b]pyridin-7-yloxy)phenyl)urea] | B (≧10% to <30% inhibition)
26 | COCCNCc1cnc(-c2cc3nccc(Oc4ccc(NC(=O)CC(=O)Nc5ccccc5)cc4F)c3s2)n1C [13(49), N^1-(3-Fluoro-4-(2-(5-((2-methoxyethylamino)methyl)-1-methyl-1H-imidazol-2-yl)thieno[3,2-b]pyridin-7-yloxy)phenyl)-N^3-phenylmalonamide] | A (greater than or equal to 30% inhibition)
